The source of these data is PubChem BioAssay (NCI).

Holding throughout (experiment): NCI tumour cell line growth inhibition, 48 h
The test system of assay [1] is IGROV1 ovarian.
Assay [2] relates to KM12 colon.
Assay [3] has as its system NCI-H226 lung.
In assay [4] the test system is NCI-H522 lung.
In assay [5] the test system is RPMI-8226 leukemia.
In assay [6] the test system is SNB-19 CNS.
Assay [7] relates to U251 CNS.
For assay [8], the system named is ACHN renal.
For assay [9], the system named is M14 melanoma.
For assay [10], the system named is DU-145 prostate.

Structures are written as SMILES.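 Compound exposure: 48 hours, 5 concentrations, 96-well plates. The concentration for 50% growth inhibition is given as GI50. TGI: concentration producing complete growth inhibition.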

Take `O=C1CCCN1CCCN=c1cc2n(-c3ccc(Cl)cc3)c3ccccc3nc-2cc1Nc1ccc(Cl)cc1`: the TGI in [1] was determined as 24.9 µM; in [2] it was 28.7 µM; in assay [3], 32.3 µM; in [4], 16.6 µM; in assay [5] it was 28.1 µM; in [6], 98.8 µM. The TGI in assay [7] stood at 54.2 µM.
In the case of `O=[N+]([O-])c1ccc(COc2cccc3cccnc23)cc1`, the TGI in [8] amounted to 76.8 µM; in assay [1] it was 67.7 µM; in assay [2], 96.5 µM; in assay [9], 29 µM; in [3] it was 95.4 µM; in [4] it was 19.4 µM. Besides, the TGI in [5] is 39.2 µM; in [6], over 100 µM; in [7], over 100 µM.
For the compound `CCn1c(=O)c2c3cc(OC(C)=O)ccc3oc2c2ccc(OC(C)=O)cc21`, the TGI was 85.9 µM in [8]; over 100 µM in [10]; over 100 µM in [1]; over 100 µM in assay [2]; over 100 µM in assay [9]; over 100 µM in assay [3]. Besides, the TGI in assay [4], in assay [6] and in [7] was over 100 µM in each case.
For `Cc1nnc([C@@]2(C)CC[C@H]3[C@@H](CCC4=CC(=O)CC[C@@]43C)[C@@H]2CC#N)o1`, the TGI in assay [8], in [1], in assay [2], in [9], in [3] and in [4] was over 100 µM each time. Further, the TGI in assay [5], in assay [6] and in [7] was over 100 µM each time.
On to `O=C1Nc2ccccc2/C1=C\c1c(Cl)nc2n1CCS2`, for which the TGI in assay [8] is over 100 µM; in assay [10], over 100 µM; in assay [1] it was over 100 µM; in assay [2] it was over 100 µM; in assay [9], over 100 µM; in [4], 40.5 µM. Further, the TGI in [5] was over 100 µM; in [6], over 100 µM; in assay [7] it was 75.6 µM.
Take `C[C@]12CCc3sc(-c4cccc(F)c4)nc3C1=CC[C@@H]1[C@@H]2CC[C@]2(C)C(=O)CC[C@@H]12`: the GI50 is 1.64 µM in assay [8]; 2.09 µM in [1]; 3.34 µM in assay [2]; 6.62 µM in [9]; 2.4 µM in assay [4]; 1.91 µM in assay [5]. In addition, the GI50 in [6] is 4.79 µM; in [7], 2 µM. Moreover, the TGI in assay [8] was 3.01 µM; in assay [1] it was 4.88 µM; in assay [2], 17.6 µM; in assay [9], over 100 µM; in assay [4] it was 6.35 µM; in assay [5] it was 5.65 µM. For the same compound, the TGI in assay [6] is over 100 µM; in [7], 13.6 µM.
As to `O=C1CCCC2=C1CC1=C(CCCC1=O)N2c1cccc([N+](=O)[O-])c1`, the TGI in assay [8], in assay [1], in [2], in assay [9], in [3] and in assay [5] was over 100 µM in each case. Also, the TGI in assay [6] and in [7] was over 100 µM throughout.
With `CCc1c(C)c2ccc(OCC(=O)N=Nc3c(O)[nH]c4ccccc34)c(C)c2oc1=O`, the GI50 was over 33.3 µM in assay [8], over 33.3 µM in [3], 0.77 µM in assay [4] and 0.936 µM in [5]. Also, the TGI in assay [8] is over 33.3 µM; in assay [3], over 33.3 µM; in [4], 1.81 µM; in assay [5], 2.27 µM.
As for `NC(=O)SCC(=O)Nc1ccc2ncccc2c1`, the TGI in assay [8] was over 100 µM; in assay [1] it was over 100 µM; in assay [2] it was over 100 µM; in assay [9], over 100 µM; in assay [3], over 100 µM; in assay [4], 69.3 µM. Besides, the TGI in [5] is 76.9 µM; in [6], over 100 µM; in assay [7], 48.7 µM.
Consider `O=[N+]([O-])c1ccc(O)c(C=NCC2CCCN3CCCCC23)c1` (centres undefined), for which the TGI in assay [8] was 89.1 µM; in assay [10] it was over 100 µM; in assay [1] it was over 100 µM; in assay [2] it was over 100 µM; in assay [9], 53.2 µM; in assay [3] it was 89.9 µM. Besides, the TGI in assay [4] and in assay [6] was over 100 µM throughout.
Take `COC(=O)C1C(O)C(C)C(O)OC1C(C)C(O)C(C)/C=C\C=C(/C)C(=O)Nc1c(C)c(OC(C)=O)c2c(c1O)C(=O)C(C)=C1OCOC(/C(C)=C/C(C)=O)=C12` (centres undefined): the TGI in [1] was 26.5 µM; in assay [2], 26.5 µM; in [3] it was 23.4 µM; in assay [4], 7.74 µM; in assay [5] it was 28.2 µM; in assay [6] it was 30.9 µM. The same compound displayed a TGI in assay [7] of 27.7 µM.
Take `Brc1ccc(-c2cc(-c3ccc4c(c3)OCO4)c(-c3cccs3)n2Cc2ccccc2)cc1`: the TGI in assay [8], in [10], in assay [1], in [2], in [9] and in assay [5] was over 100 µM in each case. The TGI in [6] and in assay [7] was over 100 µM throughout.
On to `O=C1C2CC=CCC2C(=O)N1n1c(Cc2ccccc2)n[nH]c1=O` (centres undefined), for which the TGI in [8], in assay [1], in assay [2], in assay [9], in assay [3] and in [4] was over 100 µM in each case. Moreover, the TGI in assay [5], in assay [6] and in [7] was over 100 µM each time.
Consider `CC(C)(O)CCc1ccc(O)c2c(=O)c3c(O)c4c(cc3oc12)O[C@H]1OC=C[C@@]41O`, for which the TGI was under 0.01 µM in assay [8]; 0.252 µM in assay [1]; 11.3 µM in assay [2]; 0.162 µM in assay [3]; 18.3 µM in assay [4]; over 33.6 µM in [5]. For the same compound, the TGI in assay [6] is over 59.5 µM; in assay [7] it was 0.0396 µM.
